According to patent publication US10821110B2, “Composite preparation, containing novel 3-(4--(benzyloxy)phenyl)hex-4-inoic acid derivative and another active ingredient, for preventing or treating metabolic diseases” (HYUNDAI PHARM CO., LTD., priority 2014, dated 2020):
Like-named read-outs stand apart in the source and are kept apart here.

Tests used:
human GPR40 = molecular target: T1, human GPR40 (Homo sapiens, UniProt O14842); assay: Activation of GPR40 protein: intracellular calcium change (Fluo-4, Flexstation 3) in transfected HEK-293 cells; type: cell-based; details: HEK-293 cells transfected with human GPR40
T1 construct: host or cells: HEK-293
T1 sequence (O14842 whole entry): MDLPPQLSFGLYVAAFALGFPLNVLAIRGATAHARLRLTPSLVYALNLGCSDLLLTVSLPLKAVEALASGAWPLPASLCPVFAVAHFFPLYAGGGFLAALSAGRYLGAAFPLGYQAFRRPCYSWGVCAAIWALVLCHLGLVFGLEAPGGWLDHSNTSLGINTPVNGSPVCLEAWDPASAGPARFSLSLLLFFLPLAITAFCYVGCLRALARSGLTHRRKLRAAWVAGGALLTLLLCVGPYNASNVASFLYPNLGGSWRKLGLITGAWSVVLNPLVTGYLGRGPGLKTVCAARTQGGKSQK
Protocol: The activation of GPR40 protein by a novel 3-(4-(benzyloxy)phenyl)hex-4-ynoic acid derivative of the present invention was evaluated through the change in intracellular calcium concentration due to the activity of GPR40 protein. First, HEK-293 cells were transfected with human GPR40 DNA (Origene, RC218370) by using Fugene HD (Promega, E2311). […] After 24 hours, the cell culture medium was removed, and replaced with Dulbecco's Modified Eagle Medium (DMEM, 50 μl) supplemented with 1% fetal bovine serum (FBS). For the measurement of calcium concentration, 50 μL of Fluo-4 reagent (Invitrogen, F10471) was added to each well and cultured in a 37° C. incubator for 2 hours. […] Two hours after the initiation of the culture, the prepared samples were automatically injected into the cells using Flexstation 3 (Molecular Devices), and then, the change in intracellular calcium concentration was measured using SoftMax®Pro software for 120 seconds. Here, for a non-treated group, dimethylsulfoxide (DMSO) was injected into the cells to measure the change in calcium concentration. The GPR40 protein activity was calculated from the measured calcium concentration result values using equation 1 below, and the GPR40 activity (EC50 value) by the samples was obtained. […] GPR 40 activity=(intracellular calcium concentration increased by the sample)/(intracellular calcium concentration of the non-treated group)×100 [Equation 1]

Male Sprague Dawley rats = assay: Oral glucose tolerance test (OGTT) 1; type: in vivo; details: Rattus norvegicus, 2 h; SD rats; 10 mg/kg oral; glucose 4 g/kg 30 minutes after; read-out: % AUC (reduction (%) of blood glucose AUC)
Protocol: Male Sprague Dawley rats aged 8-10 weeks old were acclimated for at least 7 days, and then only healthy animals were used for the oral glucose tolerance test (OGTT test). After fasting for 16-18 hours, five rats per group were randomly grouped and orally administered with the compounds prepared in Examples 2, 3, 4, 6, 9, 12, 14, 16, 25, 29, 36, 37, 41, 43, and 44 at a dose of 10 mg/kg each. Here, as for a non-treated group (vehicle), a solution (PEG 400/Tween 80/0.25% CMC, 5%/5%/90%, v/v/v) containing 5% polyethyleneglycol/5% tween 80/0.25% carboxymethylcelluluse (CMC) was orally administered at the same dose. Glucose (4 g/kg) was orally administered at a dose of 5 ml/kg 30 minutes after each sample was administered. Then, the blood glucose was measured by using Accu-chek active strip (Roche diagnostic Co.).

[1] = intracellular calcium, read-out: EC50
[2] = values in text, read-out: concentration activating the GPR40 protein by 50% (EC50)

CC#CC(CC(=O)O)c1ccc(OCc2ccc(CN3CCN(c4ccc(F)cc4)CC3)cc2)cc1 (centres unmarked) [Example 18, 3-(4-(4-((4-(4-fluorophenyl)piperazin-1-yl)methyl)benzyloxy)phenyl)hex-4-ynoic acid]
EC50 (human GPR40; [1]): > 300 nM

CC#CC(CC(=O)O)c1ccc(OCc2ccc(CN3CCc4ccccc4C3)cc2)cc1 (centres unmarked) [Example 12, 3-(4-(4-((3,4-dihydroisoquinolin-2(1H)-yl)methyl)benzyloxy)phenyl)hex-4-ynoic acid]
EC50 (human GPR40; [1]): < 200 nM
EC50 (human GPR40; [2]): ≤ 200 nM
inhibition in vivo at 10 mg/kg (Male Sprague Dawley rats): 31%

CC#C[C@@H](CC(=O)O)c1ccc(OCc2ccc(CN3CCc4cc(OC)ccc4C3)cc2)cc1 [Example 25, (S)-3-(4-(4-((6-methoxy-3,4-dihydroisoquinolin-2(1H)-yl)methyl)benzyloxy)phenyl)hex-4-ynoic acid]
EC50 (human GPR40; [1]): > 300 nM
inhibition in vivo at 10 mg/kg (Male Sprague Dawley rats): 24.6%

CC#CC(CC(=O)O)c1ccc(OCc2cccc(C3=CCC4(CC3)OCCO4)c2)cc1 (centres unmarked) [Example 1, 3-(4-(3-(1,4-dioxaspiro[4.5]dec-7-en-8-yl)benzyloxy)phenyl)hex-4-ynoic acid]
EC50 (human GPR40; [1]): > 300 nM

CC#CC(CC(=O)O)c1ccc(OCc2ccc(CN3CCN(c4ccc(OCCCS(C)(=O)=O)cc4)CC3)cc2)cc1 (centres unmarked) [Example 20, 3-(4-(4-((4-(4-(3-(methylsulfonyl)propoxy)phenyl)piperazin-1-yl)methyl)benzyloxy)phenyl)hex-4-ynoic acid]
EC50 (human GPR40; [1]): > 300 nM

CC#C[C@@H](CC(=O)O)c1ccc(OCc2ccc(CN3CCN(c4nc5ccccc5s4)CC3)cc2)cc1 [Example 43, (S)-3-(4-(4-((4-(benzo[d]thiazol-2-yl)piperazin-1-yl)methyl)benzyloxy)phenyl)hex-4-ynoic acid]
EC50 (human GPR40; [1]): > 300 nM
inhibition in vivo at 10 mg/kg (Male Sprague Dawley rats): 21.2%

CC#C[C@@H](CC(=O)O)c1ccc(OCc2ccc(C(C)N3CCc4ccccc4C3)cc2)cc1 (stereo partly drawn) [Example 34, (3S)-3-(4-(4-(1-(3,4-dihydroisoquinolin-2(1H)-yl)ethyl)benzyloxy)phenyl)hex-4-ynoic acid]
EC50 (human GPR40; [1]): > 300 nM

CC#C[C@@H](CC(=O)O)c1ccc(OCc2ccc(CN3CCC(c4ccccc4)CC3)cc2)cc1 [Example 26, (S)-3-(4-(4-((4-phenylpiperidin-1-yl)methyl)benzyloxy)phenyl)hex-4-ynoic acid]
EC50 (human GPR40; [1]): > 300 nM

CC#CC(CC(=O)O)c1ccc(OCc2ccc(CN3CCN(c4ccc(C(F)(F)F)cc4)CC3)cc2)cc1 (centres unmarked) [Example 19, 3-(4-(4-((4-(4-(trifluoromethyl)phenyl)piperazin-1-yl)methyl)benzyloxy)phenyl)hex-4-ynoic acid]
EC50 (human GPR40; [1]): > 300 nM

CC#C[C@@H](CC(=O)O)c1ccc(OCc2ccc(CCN3CCc4cc(OC)ccc4C3)cc2)cc1 [Example 48, (S)-3-(4-(4-(2-(6-methoxy-3,4-dihydroisoquinolin-2(1H)-yl)ethyl)benzyloxy)phenyl)hex-4-ynoic acid]
EC50 (human GPR40; [1]): > 300 nM

CC#C[C@@H](CC(=O)O)c1ccc(OCc2ccc(CCN3CCc4ccccc4C3)cc2)cc1 [Example 50, (S)-3-(4-(4-(2-(3,4-dihydroisoquinolin-2(1H)-yl)ethyl)benzyloxy)phenyl)hex-4-ynoic acid]
EC50 (human GPR40; [1]): > 300 nM

CC#CC(CC(=O)O)c1ccc(OCc2ccc(CN3CCC(c4ccccc4)CC3)cc2)cc1 (centres unmarked) [Example 17, 3-(4-(4-((4-phenylpiperidin-1-yl)methyl)benzyloxy)phenyl)hex-4-ynoic acid]
EC50 (human GPR40; [1]): > 300 nM

CC#CC(CC(=O)O)c1ccc(OCc2ccc(CN3CCc4ccccc4C3)c(C3=CCCCC3)c2)cc1 (centres unmarked) [Example 13, 3-(4-(3-cyclohexenyl-4-((3,4-dihydroisoquinolin-2(1H)-yl)methyl)benzyloxy)phenyl)hex-4-ynoic acid]
EC50 (human GPR40; [1]): > 300 nM

CC#C[C@@H](CC(=O)O)c1ccc(OCc2ccc(CN3CCN(c4ccc(OCOC)cc4)CC3)cc2)cc1 [Example 29, (S)-3-(4-(4-((4-(4-(methoxymethoxy)phenyl)piperazin-1-yl)methyl)benzyloxy)phenyl)hex-4-ynoic acid]
inhibition in vivo at 10 mg/kg (Male Sprague Dawley rats): 27.1%

CC#C[C@H](CC(=O)O)c1ccc(OCc2cccc(C3=CCC4(CC3)OCCO4)c2)cc1 [Example 8, (3R)-3-(4-(3-(1,4-dioxaspiro[4.5]dec-7-en-8-yl)benzyloxy)phenyl)hex-4-ynoic acid]
EC50 (human GPR40; [1]): > 300 nM

CC#C[C@@H](CC(=O)O)c1ccc(OCc2cccc(C3=CCC4(CC3)OCCO4)c2)cc1 [Example 7, (3S)-3-(4-(3-(1,4-dioxaspiro[4.5]dec-7-en-8-yl)benzyloxy)phenyl)hex-4-ynoic Acid]
EC50 (human GPR40; [1]): < 200 nM
EC50 (human GPR40; [2]): ≤ 200 nM

CC#C[C@@H](CC(=O)O)c1ccc(OCc2ccc(CN3CCC(c4ccccc4)C3)cc2)cc1 (stereo partly drawn) [Example 46, (3S)-3-(4-(4-((3-phenylpyrrolidin-1-yl)methyl)benzyloxy)phenyl)hex-4-ynoic acid]
EC50 (human GPR40; [1]): > 300 nM

potassium (S)-3-(4-(4-((4-(4-(trifluoromethyl)phenyl)piperazin-1-yl)methyl)benzyloxy)phenyl)hex-4-ynoate [Example 24]
EC50 (human GPR40; [1]): 200 to 300 nM

CC#C[C@@H](CC(=O)O)c1ccc(OCc2ccc(CN3CCN(c4ccc(C#N)cn4)CC3)cc2)cc1 [Example 45, (S)-3-(4-(4-((4-(5-cyanopyridin-2-yl)piperazin-1-yl)methyl)benzyloxy)phenyl)hex-4-ynoic acid]
EC50 (human GPR40; [1]): > 300 nM

CC#C[C@@H](CC(=O)O)c1ccc(OCc2ccc(CN3CCN(c4ccc(O)cc4)CC3)cc2)cc1 [Example 35, (S)-3-(4-(4-((4-(4-hydroxyphenyl)piperazin-1-yl)methyl)benzyloxy)phenyl)hex-4-ynoic acid]
EC50 (human GPR40; [1]): > 300 nM

CC#CC(CC(=O)O)c1ccc(OCc2ccc(CN3CCN(c4ccccc4)CC3)cc2)cc1 (centres unmarked) [Example 15, 3-(4-(4-((4-phenylpiperazin-1-yl)methyl)benzyloxy)phenyl)hex-4-ynoic acid]
EC50 (human GPR40; [1]): > 300 nM

CC#C[C@@H](CC(=O)O)c1ccc(OCc2ccc(CCN3Cc4ccccc4C3)cc2)cc1 [Example 49, (S)-3-(4-(4-(2-(isoindolin-2-yl)ethyl)benzyloxy)phenyl)hex-4-ynoic acid]
EC50 (human GPR40; [1]): > 300 nM

CC#C[C@@H](CC(=O)O)c1ccc(OCc2ccc(CN3Cc4ccccc4C3)cc2)cc1 [Example 37, sodium (S)-3-(4-(4-(isoindolin-2-ylmethyl)benzyloxy)phenyl)hex-4-ynoate]
inhibition in vivo at 10 mg/kg (Male Sprague Dawley rats): 28.5%

CC#CC(CC(=O)O)c1ccc(OCc2ccc(C3=CCC4(CC3)OCCO4)cc2)cc1 (centres unmarked) [Example 3]
inhibition in vivo at 10 mg/kg (Male Sprague Dawley rats): 12.5%

CC#C[C@@H](CC(=O)O)c1ccc(OCc2ccc(CN3CC=C(c4ccc(S(C)(=O)=O)cc4)CC3)cc2)cc1 [Example 32, (S)-3-(4-(4-((4-(4-(methylsulfonyl)phenyl)-5,6-dihydropyridin-1(2H)-yl)methyl)benzyloxy)phenyl)hex-4-ynoic acid]
EC50 (human GPR40; [1]): > 300 nM

CC#C[C@H](CC(=O)O)c1ccc(OCc2cccc(C3=CCC4(CC3)OCCO4)c2)cc1 [Example 10, L-lysine (3R)-3-(4-(3-(1,4-dioxaspiro[4.5]dec-7-en-8-yl)benzyloxy)phenyl)hex-4-ynoate]
EC50 (human GPR40; [1]): > 300 nM

CC#C[C@@H](CC(=O)O)c1ccc(OCc2ccc(CN3CC=C(c4ccc(OCCCS(C)(=O)=O)cc4)CC3)cc2)cc1 [Example 33, (S)-3-(4-(4-((4-(4-(3-(methylsulfonyl)propoxy)phenyl)-5,6-dihydropyridin-1(2H)-yl)methyl)benzyloxy)phenyl)hex-4-ynoic acid]
EC50 (human GPR40; [1]): > 300 nM

CC#CC(CC(=O)O)c1ccc(OCc2cccc(C3=CCC(O)CC3)c2)cc1 [Example 6, L-lysine 3-(4-(3-(4-hydroxycyclohex-1-enyl)benzyloxy)phenyl)hex-4-ynoate]
inhibition in vivo at 10 mg/kg (Male Sprague Dawley rats): 15.2%

CC#C[C@@H](CC(=O)O)c1ccc(OCc2ccc(CN3Cc4ccccc4C3)cc2)cc1 [Example 27, (S)-3-(4-(4-(isoindolin-2-ylmethyl)benzyloxy)phenyl)hex-4-ynoic acid]
EC50 (human GPR40; [1]): < 200 nM
EC50 (human GPR40; [2]): ≤ 200 nM

CC#C[C@@H](CC(=O)O)c1ccc(OCc2ccc(CN3CCN(c4ccc(C(F)(F)F)cc4)CC3)cc2)cc1 [Example 22, (S)-3-(4-(4-((4-(4-(trifluoromethyl)phenyl)piperazin-1-yl)methyl)benzyloxy)phenyl)hex-4-ynoic acid]
EC50 (human GPR40; [1]): > 300 nM

CC#C[C@@H](CC(=O)O)c1ccc(OCc2ccc(CN3CC=C(c4ccccc4)CC3)cc2)cc1 [Example 28, (S)-3-(4-(4-((4-phenyl-5,6-dihydropyridin-1(2H)-yl)methyl)benzyloxy)phenyl)hex-4-ynoic acid]
EC50 (human GPR40; [1]): < 200 nM
EC50 (human GPR40; [2]): ≤ 200 nM
